Tests used:
Format in all cases: cell-based
[1] = tested on: HepG2 and A549 cell lines; assay: Cell painting morphological manifold of compound-treated cancer cell lines (deep CNN); conditions: for clustering in manifold by phenotypic effect (FIG. 16H): previously unseen drugs versus previously seen drugs; for clustering in morphological embedding (FIGS. 18A, 18B): 48 hours incubation, held-out versus training compounds
Procedure: Immortalized cancer cell lines A549 and HepG2 were cultured in T150 flasks and harvested above 60% confluency. The cells were counted on a cell counter (Countess by ThermoFisher) the cell suspension was adjusted to 2000 cells per 50 μL well of a 384 well PDL coated Cell Carrier Ultra (Perkin Elmer) plates. The cells were incubated overnight in a 37 C 5% CO2 incubator and then dosed with our compound collection (at multiple concentrations in log space) in DMSO with a Labcyte Echo from Echo qualified PP2.0 plates. After dosing the cells were incubated for 48 hours in a 37 C 5% CO2 incubator. After the incubation period the plates were stained with Mito-tracker by removing the cell media, washing with PBS on a EL406 plate washer (Biotek), then adding diluted 1 mM stock concentration mitotracker dye in cell culture media to each well with a PRIME liquid handler (HighRes Biosciences). The plates were incubated for 30 minutes and then washed 1× with PBS. Formaldehyde was added to each well of each plate to fix the cells and incubated for 20 minutes and then washed 5× with PBS. 0.1% Triton in PBS was added to the plates and incubated for 15 minutes then washed 2× with PBS and a stain mixture was added to all wells of the plates. The stain mixture included 5 μg/mL Hoechst, 100 μg/mL Concanavalin Alexa Fluor 488 conjugate, 3 uM SYTO 14 green fluorescent nucleic acid stain, 5 uL/mL Phalloidin/Alexa Fluor 568 conjugate, and 1.5 μg/mL Wheat Germ Agglutinin Alexa Fluor 555 conjugate in HBSS with BSA. The plates were incubated for 30 minutes with the stain solution and then washed 4× with PBS. The plates were then imaged in a Perkin Elmer Opera Phenix microscope with 16 images taken per well for all stain wavelengths.
This is a classification task where the goal is to identify which compound was used to perturb the cells in a single well. A single well is split into 16 different fields of views (FOV) which are captured by the microscope. The raw FOV images were preprocessed by correcting the illumination. The FOV images were further cropped into smaller squares so that we can fit into memory during the training of deep convolutional neural network (CNN) models. The Hoechst channel was used to detect the nucleus and then make a square around the detected nucleus.
A deep convolutional neural network was implemented to model the classification task. It was a 150-way classification task. The residual networks (ResNets) was used as the base feature extractor network with a fully connected linear network on top to perform the classification. Standard augmentations were implemented which improved the performance and removed experimental biases. For example, intensity based augmentations like gamma contrast are helpful in removing experimental biases (batch effects). For the mechanism of action identification, some compounds were omitted (˜30 compounds out of 150) during training. During inference, the unseen compounds were embedded closer to the expected mechanism of action cluster along with the seen compounds. FIG. 18A depicts example embeddings with similar drugs clustered more closely together. Here, lovastatin is a held out, unseen drug whereas atorvastatin is a drug used for training. […] In accordance with the methodology of Example 11 (e.g., FIGS. 16A-16D) described above, using embeddings/predictions, the candidate therapy is analyzed to predict its effect (e.g., effect in reverting disease phenotype back to healthy), and further validated in vitro.

knockout treated cells = assay: Microscopy tile embeddings (deep neural network, UMAP) of WT and KO lines with treatment; conditions: UMAP projector calculated on untreated WT/KO tile embeddings
Excerpt: FIG. 16C depicts an example embedding showing phenotypic distinction between wild type and knockout cells. FIG. 16C was generated by projecting embeddings extracted from a deep neural network down to two dimensions using UMAP. The neural network model was trained in a supervised manner to discriminate between sick/healthy based on labels for WT and KO lines respectively. Each point in the figure corresponds to a tile of the original microscopy image. The points represented here are only for the WT and KO groups without treatment.
FIG. 16D depicts the use of embeddings for validating known effects of treatments (e.g., rapamycin and everolimus). The following figure uses the same UMAP projector calculated on tile embeddings of WT/KO with no treatment to project the embeddings representing treatment groups into the same space.

[2] = tested on: human cortical excitatory neurons; assay: Neuropaint high-content imaging of neurons exposed to small molecule compounds, ML embeddings; conditions: 3 concentrations; DAPI, LV-Syn-GFP, Actin, Mito-tracker stains
Procedure: DoxNGN2 iPSCs were plated at two different seeding densities (1k and 6k cells) and further differentiated into human cortical excitatory neurons. Different populations of neurons were exposed to 3 different concentrations of small molecules including rotenone, everolimus, loxapine, phorbol 12-myristate 13-acetate (PMA), staurosporine, rapamycin, BIO, and blebbistatin. Neurons were also treated with controls including phosphate buffered saline and dimethyl sulfoxide (DMSO). Following treatment, phenotypic assay data was captured from the treated neurons by performing high-content imaging (e.g., Neuropaint).

SMILES	clustering in manifold by phenotypic effect (FIG. 16H) [1]	clustering in morphological embedding (FIGS. 18A, 18B) [1]	also measured
COc1cc(C(=O)O)ccc1NC(=O)[C@@H]1N[C@@H](CC(C)(C)C)[C@](C#N)(c2ccc(Cl)cc2F)[C@H]1c1cccc(Cl)c1F [RG7388]	clustered proximity to previously seen drugs		
CC[C@H](C)C(=O)O[C@H]1C[C@@H](C)C=C2C=C[C@H](C)[C@H](CC[C@@H]3C[C@@H](O)CC(=O)O3)[C@H]21 [lovastatin]	clustered proximity to previously seen drugs	clustered close together	
COc1ccc(-c2ccc3c(N4CCOC[C@@H]4C)nc(N4CCOC[C@@H]4C)nc3n2)cc1CO [AZD 8055]	clustered proximity to previously seen drugs		
CC(C)c1c(C(=O)Nc2ccccc2)c(-c2ccccc2)c(-c2ccc(F)cc2)n1CC[C@@H](O)C[C@@H](O)CC(=O)O [atorvastatin]		clustered close together	
CO[C@H]1C[C@@H]2CC[C@@H](C)[C@@](O)(O2)C(=O)C(=O)N2CCCC[C@H]2C(=O)O[C@H]([C@H](C)C[C@@H]2CC[C@@H](OCCO)[C@H](OC)C2)CC(=O)[C@H](C)/C=C(\C)[C@@H](O)[C@@H](OC)C(=O)[C@H](C)C[C@H](C)/C=C/C=C/C=C/1C [everolimus]			shift of knockout cells in image embedding (FIG. 16D) (knockout treated cells): induces knockout treated cells to revert back towards a healthy phenotype
CN[C@@H]1C[C@H]2O[C@@](C)([C@@H]1OC)n1c3ccccc3c3c4c(c5c6ccccc6n2c5c31)C(=O)NC4 [staurosporine]			location of treated neurons in embeddings (FIG. 10C) [2]: located separate from neurons treated with other small compounds
